Results on 26 compounds are retold here after US9187472B2 (AbbVie Inc., priority 2012, dated 2015).

Test [1] has as its target NAMPT (human, recombinant, C-terminally His-tagged) (Homo sapiens, UniProt P43490). The test is described as follows: Time-Resolved Fluorescence Resonance Energy Transfer (TR-FRET) Binding Assay of NAMPT. The conditions noted are these: without substrates; 6.8 nM NAMPT, 200 nM probe, 3 hours equilibration. The procedure:
Determination of the utility of compounds having Formula (I) as binders to and inhibitors of NAMPT was performed using Time-Resolved Fluorescence Resonance Energy Transfer (TR-FRET) binding assays.
Time-Resolved Fluorescence Resonance Energy Transfer (TR-FRET) Binding Assay of NAMPT
Test compounds were serially diluted (typically 11 half log dilutions) in neat DMSO to 50× final concentrations prior to dilution with assay buffer (50 mM HEPES (NaOH), pH 7.5, 100 mM NaCl, 10 mM MgCl2, 1 mM DTT, 1% Glycerol) to 3× and 6% DMSO. Six μL were transferred to 384-well low-volume plates (Owens Corning #3673). To this, […] of a 1.5× solution containing enzyme, probe and antibody were added. Final concentrations in the 18 μL, reactions were 1× assay buffer, 2% DMSO, 6.8 nM NAMPT (human, recombinant, C-terminally His-tagged), 200 nM probe (a potent nicotinamide-competitive inhibitor conjugated to Oregon Green 488) and 1 nM Tb-anti-His antibody (Invitrogen # PV5895). Reactions were equilibrated at room temperature for 3 hours prior to reading on an Envision multi-label plate reader (Perkin Elmer; Ex=337 nm, Em=520 and 495 nm). Time-resolved FRET ratios (Em520/Em495) were normalized to controls, plotted as a function of compound concentration and fit with the four-parameter logistic equation to determine IC50s.

The target of another test is NAMPT (Homo sapiens, UniProt P43490). The test is described as follows: TR-FRET Binding Assay of NAMPT with PRPP. The conditions noted are these: with 200 μM PRPP and 2.5 mM ATP; 2 nM NAMPT, 2 nM probe, 16 hours equilibration. The method, then: Time-Resolved Fluorescence Resonance Energy Transfer (TR-FRET) Binding Assay of NAMPT with PRPP
Compound handling and data processing were identical to the assay in the absence of substrates (above). Final concentrations were 1× assay buffer, 2% DMSO, 2 nM NAMPT, 2 nM probe, 1 nM Tb-anti-His antibody (Invitrogen # PV5895), 200 μM PRPP and 2.5 mM ATP. Reactions were equilibrated for 16 hours prior to measurement to allow for potential enzymatic modification of test compounds.

The next test concerns PC3 cells. The test is described as follows: NAMPT Cell Proliferation Assay. The format is cell-based. The conditions noted are these: Homo sapiens, PC-3, 120 h, 5 days incubation, cell viability by Cell Titer Glo. The method in brief:
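Proliferation of PC3 cells treated 5 days with a 10-fold compound series (top 10 μM) was quantified by Cell Titer Glo luminescence; IC50s were fitted from percent inhibition.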

NAMPT (human, recombinant, C-terminally His-tagged), sequence (P43490 whole entry): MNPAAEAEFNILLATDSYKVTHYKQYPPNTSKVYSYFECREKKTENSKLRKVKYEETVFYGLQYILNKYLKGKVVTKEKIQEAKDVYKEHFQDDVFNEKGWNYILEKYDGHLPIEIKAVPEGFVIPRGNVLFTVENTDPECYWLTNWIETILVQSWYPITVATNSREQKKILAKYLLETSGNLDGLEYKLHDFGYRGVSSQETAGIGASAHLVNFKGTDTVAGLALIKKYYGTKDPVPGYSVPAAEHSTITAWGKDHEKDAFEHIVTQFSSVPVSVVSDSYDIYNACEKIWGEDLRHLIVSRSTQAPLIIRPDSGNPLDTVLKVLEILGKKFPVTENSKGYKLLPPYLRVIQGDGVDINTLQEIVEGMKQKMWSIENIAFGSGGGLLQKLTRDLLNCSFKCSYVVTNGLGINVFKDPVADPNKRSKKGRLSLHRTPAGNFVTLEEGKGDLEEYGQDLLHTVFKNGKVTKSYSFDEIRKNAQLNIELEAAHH
NAMPT, sequence (P43490 whole entry): as above

With `O=C(NCc1ccn2ccnc2c1)c1ccc(C2CCN(C(=O)c3cccnc3)C2)s1` (centres unmarked) [Example 798, N-(imidazo[1,2-a]pyridin-7-ylmethyl)-5-[1-(pyridin-3-ylcarbonyl)pyrrolidin-3-yl]thiophene-2-carboxamide], the IC50 in test [1] is 95.7 nM; at NAMPT, 0.47 nM; in the test on PC3 cells it was 9.63 nM.
The corresponding values for `CC(C)C(=O)N1CC=C(c2ccc(NC(=O)NCc3ccn4ccnc4c3)c(F)c2)CC1` [Example 306, 1-{2-fluoro-4-[1-(2-methylpropanoyl)-1,2,3,6-tetrahydropyridin-4-yl]phenyl}-3-(imidazo[1,2-a]pyridin-7-ylmethyl)urea] are 144 nM, 0.169 nM and 21.9 nM.
Turning to `O=C(NCc1ccn2ccnc2c1)c1ccc(-c2cnn(C3CCOCC3)c2)s1` [Example 410, N-(imidazo[1,2-a]pyridin-7-ylmethyl)-5-[1-(tetrahydro-2H-pyran-4-yl)-1H-pyrazol-4-yl]thiophene-2-carboxamide], the IC50 worked out at 20.7 nM in test [1] and 0.169 nM on NAMPT.
For the compound `COCCC(=O)N(Cc1ccc(C#N)cc1)c1ncc(C(=O)NCc2ccn3ccnc3c2)s1` [Example 57, 2-[(4-cyanobenzyl)(3-methoxypropanoyl)amino]-N-(imidazo[1,2-a]pyridin-7-ylmethyl)-1,3-thiazole-5-carboxamide], the values for the IC50 (in test [1]; with PC3 cells) were 5.8 nM and 5.76 nM, respectively.
With `CC(C(=O)N1CCC(c2ccc(C(=O)NCc3ccn4ccnc4c3)cc2)CC1)n1ccc(C2CC2)n1` (centres unmarked) [Example 1106, 4-{1-[2-(3-cyclopropyl-1H-pyrazol-1-yl)propanoyl]piperidin-4-yl}-N-(imidazo[1,2-a]pyridin-7-ylmethyl)benzamide], the IC50 in the test with PC3 cells was 27.5 nM.
As for `O=C(Cc1cc(F)ccc1F)Nc1ccc(C(=O)NCc2ccn3ccnc3c2)cc1` [Example 890, 4-{[(2,5-difluorophenyl)acetyl]amino}-N-(imidazo[1,2-a]pyridin-7-ylmethyl)benzamide], in the test on PC3 cells, 31.8 nM corresponded to half-maximal inhibition (IC50).
Consider `O=C(NCc1ccn2ccnc2c1)c1ccc(C2CCN(C(=O)c3ccc4snnc4c3)CC2)cc1` [Example 1004, 4-[1-(1,2,3-benzothiadiazol-5-ylcarbonyl)piperidin-4-yl]-N-(imidazo[1,2-a]pyridin-7-ylmethyl)benzamide], for which, in the test with PC3 cells, inhibition was half-maximal at 56.7 nM (IC50).
The same measure, in the same setting: in the case of `N#Cc1cc(C(=O)N2CCC(c3ccc(C(=O)NCc4ccn5ccnc5c4)cc3)CC2)ccc1F` [Example 999, 4-[1-(3-cyano-4-fluorobenzoyl)piperidin-4-yl]-N-(imidazo[1,2-a]pyridin-7-ylmethyl)benzamide] it was 684 nM; in that of `O=C(NCc1ccn2ccnc2c1)Nc1ccc(C2CCN(C(=O)c3ccccn3)CC2)cc1F` [Example 1075, 1-{2-fluoro-4-[1-(pyridin-2-ylcarbonyl)piperidin-4-yl]phenyl}-3-(imidazo[1,2-a]pyridin-7-ylmethyl)urea], 7.62 nM.
Still for that read-out and setting: then `O=C(NCc1ccn2ccnc2c1)c1ccc(C2CCN(C(=O)C3=Cc4ccccc4OC3)CC2)cc1` [Example 974, 4-[1-(2H-chromen-3-ylcarbonyl)piperidin-4-yl]-N-(imidazo[1,2-a]pyridin-7-ylmethyl)benzamide], with 28.7 nM; and `O=C(NCc1ccn2ccnc2c1)c1ccc(C2CCN(C(=O)Cc3cccnc3Cl)CC2)cc1` [Example 972, 4-{1-[(2-chloropyridin-3-yl)acetyl]piperidin-4-yl}-N-(imidazo[1,2-a]pyridin-7-ylmethyl)benzamide], with 28.9 nM; and `O=C(NCc1ccn2ccnc2c1)c1ccc(C2CCN(C(=O)c3ccc(C4CC4)cn3)CC2)cc1` [Example 1094, 4-{1-[(5-cyclopropylpyridin-2-yl)carbonyl]piperidin-4-yl}-N-(imidazo[1,2-a]pyridin-7-ylmethyl)benzamide], with 68.8 nM.
For the compound `O=C(NCc1ccn2ccnc2c1)Nc1ccc(C2CCN(C(=O)c3nc4ccccc4s3)CC2)cc1` [Example 1054, 1-{4-[1-(1,3-benzothiazol-2-ylcarbonyl)piperidin-4-yl]phenyl}-3-(imidazo[1,2-a]pyridin-7-ylmethyl)urea], in the test with PC3 cells, the IC50 was determined as 26 nM.
The same measure, in the same setting: in the case of `CCc1c(C(=O)N2CCC(c3ccc(NC(=O)NCc4ccn5ccnc5c4)cc3)CC2)nnn1CC` [Example 1128, 1-(4-{1-[(1,5-diethyl-1H-1,2,3-triazol-4-yl)carbonyl]piperidin-4-yl}phenyl)-3-(imidazo[1,2-a]pyridin-7-ylmethyl)urea] it was 6.05 nM.
In the test on PC3 cells, `C=CCn1nc(C)cc1C(=O)N1CCC(c2ccc(C(=O)NCc3ccn4ccnc4c3)cc2)CC1` [Example 1003, N-(imidazo[1,2-a]pyridin-7-ylmethyl)-4-(1-{[3-methyl-1-(prop-2-en-1-yl)-1H-pyrazol-5-yl]carbonyl}piperidin-4-yl)benzamide] yielded an IC50 of 4.96 nM.
As for `Cc1nc2ccc(C(=O)N3CCC(c4ccc(C(=O)NCc5ccn6ccnc6c5)cc4)CC3)cc2o1` [Example 980, N-(imidazo[1,2-a]pyridin-7-ylmethyl)-4-{1-[(2-methyl-1,3-benzoxazol-6-yl)carbonyl]piperidin-4-yl}benzamide], the IC50 in the test on PC3 cells is 29.4 nM.
In the test with PC3 cells, `O=C(NCc1ccn2ccnc2c1)c1ccc(C2CCN(C(=O)c3ccc4scnc4c3)CC2)cc1` [Example 1085, 4-[1-(1,3-benzothiazol-5-ylcarbonyl)piperidin-4-yl]-N-(imidazo[1,2-a]pyridin-7-ylmethyl)benzamide] had an IC50 of 25.6 nM.
On the same count and under the same terms, in the case of `O=C(NCc1ccn2ccnc2c1)c1ccc(C2CCN(C(=O)c3ccc4ccncc4c3)CC2)cc1` [Example 988, N-(imidazo[1,2-a]pyridin-7-ylmethyl)-4-[1-(isoquinolin-7-ylcarbonyl)piperidin-4-yl]benzamide] it was 60.1 nM.
In the test on PC3 cells, `CC1CC(C#N)(C(=O)N2CCC(c3ccc(C(=O)NCc4ccn5ccnc5c4)cc3)CC2)C1` (centres unmarked) [Example 1090, 4-{1-[(1-cyano-3-methylcyclobutyl)carbonyl]piperidin-4-yl}-N-(imidazo[1,2-a]pyridin-7-ylmethyl)benzamide] displayed an IC50 of 5.42 nM.
`CCc1cc(C(=O)N2CCC(c3ccc(NC(=O)NCc4ccn5ccnc5c4)cc3)CC2)on1` [Example 1055, 1-(4-{1-[(3-ethyl-1,2-oxazol-5-yl)carbonyl]piperidin-4-yl}phenyl)-3-(imidazo[1,2-a]pyridin-7-ylmethyl)urea] displayed an IC50 in the test on PC3 cells of 4.38 nM.
Turning to `O=C(NCc1ccc2ncnn2c1)c1ccc(C2CCN(C(=O)c3ccc(F)cc3)CC2)s1` [Example 833, 5-[1-(4-fluorobenzoyl)piperidin-4-yl]-N-([1,2,4]triazolo[1,5-a]pyridin-6-ylmethyl)thiophene-2-carboxamide], in the test on PC3 cells, half-maximal inhibition (IC50) required 70 nM.
`CC(C)c1nccc(C(=O)N2CCC(c3ccc(C(=O)NCc4ccn5ccnc5c4)cc3)CC2)n1` [Example 1006, N-(imidazo[1,2-a]pyridin-7-ylmethyl)-4-(1-{[2-(propan-2-yl)pyrimidin-4-yl]carbonyl}piperidin-4-yl)benzamide] showed an IC50 in the test on PC3 cells of 73.7 nM.
For the compound `O=C(NCc1ccn2ccnc2c1)Nc1ccc(C2CCN(C(=O)C3(c4ccccn4)CC3)CC2)cc1` [Example 1020, 1-(imidazo[1,2-a]pyridin-7-ylmethyl)-3-[4-(1-{[1-(pyridin-2-yl)cyclopropyl]carbonyl}piperidin-4-yl)phenyl]urea], the midpoint of inhibition with PC3 cells, the IC50, lay at 0.901 nM.
On the same count and under the same terms, in the case of `CC(C)(O)C(=O)N1CCC(c2ccc(C(=O)NCc3ccc4ncnn4c3)s2)CC1` [Example 850, 5-[1-(2-hydroxy-2-methylpropanoyl)piperidin-4-yl]-N-([1,2,4]triazolo[1,5-a]pyridin-6-ylmethyl)thiophene-2-carboxamide] it was 54 nM; in that of `O=C(NCc1ccn2ccnc2c1)c1ccc(C2CCN(C(=O)c3ccc4occc4c3)CC2)cc1` [Example 1112, 4-[1-(1-benzofuran-5-ylcarbonyl)piperidin-4-yl]-N-(imidazo[1,2-a]pyridin-7-ylmethyl)benzamide], 16.4 nM.
Compound `O=C(NCc1cn2ccnc2cn1)c1ccc(C2CCN(C(=O)c3ccccc3)CC2)cc1F` [Example 1159, 4-(1-benzoylpiperidin-4-yl)-2-fluoro-N-(imidazo[1,2-a]pyrazin-6-ylmethyl)benzamide] came in with an IC50 with PC3 cells of 17.4 nM.
